Here are results for four compounds from patent US9775904B2 (priority 2014, dated 2017).

Read-outs that look alike come from different tables or passages of the source.

Data set [1] addresses T1, human GLP-1 receptor (hGLP-1 R) (Homo sapiens, UniProt P43220).
T1 construct: expressed in transfected cells
Briefly: cAMP response of HEK-293 cells expressing human GLP-1 receptor (HTRF). Format: cell-based. The conditions noted are these: Table 6. How it is done: (§1) cAMP content of cells was determined using a kit from Cisbio Corp. (cat. no. 62AM4PEC) based on HTRF (Homogenous Time Resolved Fluorescence). For preparation, cells were split into T175 culture flasks and grown overnight to near confluency in medium (DMEM/10% FBS). Medium was then removed and cells washed with PBS lacking calcium and magnesium, followed by proteinase treatment with accutase (Sigma-Aldrich cat. no. A6964). Detached cells were washed and resuspended in assay buffer (1×HBSS; 20 mM HEPES, 0.1% BSA, 2 mM IBMX) and cellular density determined. They were then diluted to 400000 cells/ml and 25 μl-aliquots dispensed into the wells of 96-well plates. For measurement, 25 μl of test compound in assay buffer was added to the wells, followed by incubation for 30 minutes at room temperature.
(In general: In TR-FRET formats the signal depends on donor and acceptor labels being close together.)

The target in data set [2] is T2, human glucagon receptor (hGlucagon R) (Homo sapiens, UniProt P47871).
T2 construct: expressed in transfected cells
T2 sequence (P47871 26-477): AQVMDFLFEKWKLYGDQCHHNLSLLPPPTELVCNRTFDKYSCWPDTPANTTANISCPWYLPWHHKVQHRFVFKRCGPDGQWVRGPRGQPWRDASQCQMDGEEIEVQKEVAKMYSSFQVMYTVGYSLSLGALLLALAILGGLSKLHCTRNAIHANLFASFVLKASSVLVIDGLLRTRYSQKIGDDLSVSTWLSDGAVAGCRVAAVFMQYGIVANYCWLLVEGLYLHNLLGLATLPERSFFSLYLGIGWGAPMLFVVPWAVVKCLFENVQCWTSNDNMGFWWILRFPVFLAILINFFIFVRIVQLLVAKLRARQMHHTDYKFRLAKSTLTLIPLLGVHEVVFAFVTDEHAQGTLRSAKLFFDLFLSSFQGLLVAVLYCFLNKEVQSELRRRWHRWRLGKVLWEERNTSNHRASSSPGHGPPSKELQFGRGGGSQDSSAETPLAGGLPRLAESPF
Briefly: cAMP response of HEK-293 cells expressing human glucagon receptor (HTRF). Format: cell-based. How it is done:
as §1

Data set [3] concerns the target T3, human GIP receptor (hGIP-R) (Homo sapiens, UniProt P48546).
T3 construct: expressed in transfected cells
T3 sequence (P48546 22-466): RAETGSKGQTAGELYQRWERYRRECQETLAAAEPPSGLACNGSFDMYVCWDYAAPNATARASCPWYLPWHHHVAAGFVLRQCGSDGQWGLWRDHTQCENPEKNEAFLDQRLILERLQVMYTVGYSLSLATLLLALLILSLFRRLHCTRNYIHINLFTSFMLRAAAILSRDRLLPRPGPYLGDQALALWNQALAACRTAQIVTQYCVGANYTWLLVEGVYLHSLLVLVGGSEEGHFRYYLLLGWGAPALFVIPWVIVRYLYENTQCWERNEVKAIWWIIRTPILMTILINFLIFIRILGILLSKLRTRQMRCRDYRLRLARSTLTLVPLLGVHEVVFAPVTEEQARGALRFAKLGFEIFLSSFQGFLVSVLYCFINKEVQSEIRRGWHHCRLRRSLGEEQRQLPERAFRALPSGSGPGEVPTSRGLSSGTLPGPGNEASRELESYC
Kind of data set: cAMP response of HEK-293 cells expressing human GIP receptor (HTRF). Format: cell-based. On the procedure: as §1

Data set [4] in a line: Solubility testing in buffer (HPLC-UV). It counts as physicochemical. On the procedure: Prior to the testing of solubility and stability of a peptide batch, its purity (HPLC-UV) was determined.
. Therefore, solutions from solid samples were prepared in different buffer systems with a concentration of 10 mg/mL compound based on the previously determined % purity. HPLC-UV was performed after 2 h of gentle agitation from the supernatant, which was obtained by 20 min of centrifugation at 4500 rpm.
[…]. This analysis also served as starting point (t0) for the stability testing.

Data set [5] can be described thus: Acute effect on blood glucose in fed female DIO C57BL/6 mice. It counts as in vivo. The conditions noted are these: 50 μg/kg s.c. once daily; t=1, 2, 3, 4, 6 and 24 h post dosing; p<0.001. How it is done:
(§2) C57BL/6 Harlan mice are housed in groups in a specific pathogen-free barrier facility on a 12 h light/dark cycle with free access to water and standard or high-fat diet. After prefeeding on high-fat diet, mice are stratified to treatment groups (n=8), so that each group has similar mean body weight. An age-matched group with ad-libitum access to standard chow is included as standard control group. Before the experiment, mice are subcutaneously (s.c.) injected with vehicle solution and weighed for 3 days to acclimate them to the procedures.
1) Acute effect on blood glucose in fed female DIO mice: initial blood samples are taken just before first administration (s.c.) of vehicle (phosphate buffer solution) or the exendin-4 derivatives (dissolved in phosphate buffer), respectively. The volume of administration is 5 mL/kg. The animals have access to water and their corresponding diet during the experiment. Blood glucose levels are measured at t=0 h, t=1 h, t=2 h, t=3 h, t=4 h, t=6 h and t=24 h (method: Accu-Check glucometer). Blood sampling is performed by tail incision without anaesthesia.
(§3) Statistical analyses are performed with Everstat 6.0 by repeated measures two-way ANOVA and Dunnetts post-hoc analyses (glucose profile) and 1-way-ANOVA, followed by Dunnetts post-hoc test (body weight, body fat). Differences versus vehicle-treated DIO control mice are considered statistically significant at the p<0.05 level.
At predefined time points, more blood samples were taken to measure blood glucose and generate the blood glucose profile over 24 h.

The nature of data set [6]: Chronic effect on body weight and body fat in female DIO C57BL/6 mice, 4 weeks. Format: in vivo. Particulars: 50 μg/kg qd s.c. On the procedure: as §2
2) Chronic effect on body weight in female DIO mice: mice are treated once (s.c. in evening hours) or twice daily (s.c. in the morning and in the evening), respectively, at the beginning and the end of the light phase with either vehicle or exendin-4 derivatives for 4 weeks. Body weight is recorded daily. Two days before start of treatment and on day 26, total fat mass is measured by nuclear magnetic resonance (NMR).
as §3
Body weight was recorded daily, and body fat content was determined before the start and after 4 weeks of treatment. […] These changes resulted from a decrease in body fat, as shown by the absolute changes in body fat content (Table 10, FIG. 3).
Body weight was recorded daily, and body fat content was determined before the start and after 4 weeks of treatment.

[7] abbreviates: pH 4.5, target concentration 10 mg/ml, read-out: solubility [mg/ml] pH 4.5.
[8] abbreviates: pH 7.4, target concentration 10 mg/ml, read-out: solubility [mg/ml] pH 7.4.

T1 sequence (P43220 24-463): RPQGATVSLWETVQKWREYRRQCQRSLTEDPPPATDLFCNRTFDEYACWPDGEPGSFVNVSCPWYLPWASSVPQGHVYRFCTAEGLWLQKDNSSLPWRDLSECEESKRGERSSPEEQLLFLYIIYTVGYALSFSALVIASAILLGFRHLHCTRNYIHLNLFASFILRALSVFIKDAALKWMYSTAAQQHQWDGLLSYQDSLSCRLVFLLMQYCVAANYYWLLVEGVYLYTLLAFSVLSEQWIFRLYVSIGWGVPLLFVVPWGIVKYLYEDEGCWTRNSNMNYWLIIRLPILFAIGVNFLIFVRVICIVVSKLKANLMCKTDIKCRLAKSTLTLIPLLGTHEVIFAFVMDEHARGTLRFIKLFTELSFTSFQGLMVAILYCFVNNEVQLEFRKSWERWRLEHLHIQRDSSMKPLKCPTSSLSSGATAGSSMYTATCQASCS

On to `CCCCCCCCCCCCCCCCCC(=O)N[C@@H](CCC(=O)NCCCC[C@H](NC(=O)[C@H](CCC(N)=O)NC(=O)[C@H](CCCCN)NC(=O)[C@H](CO)NC(=O)[C@H](CC(C)C)NC(=O)[C@H](CC(=O)O)NC(=O)[C@H](CO)NC(=O)[C@@H](NC(=O)[C@H](Cc1ccccc1)NC(=O)[C@@H](NC(=O)CNC(=O)[C@H](CCC(N)=O)NC(=O)C(C)(C)NC(=O)[C@@H](N)Cc1c[nH]cn1)[C@@H](C)O)[C@@H](C)O)C(=O)N[C@@H](CC(=O)O)C(=O)N[C@@H](CCC(=O)O)C(=O)N[C@@H](CCC(N)=O)C(=O)N[C@@H](CCCNC(=N)N)C(=O)N[C@@H](C)C(=O)N[C@@H](CCCCN)C(=O)N[C@@H](CC(C)C)C(=O)N[C@@H](Cc1ccccc1)C(=O)N[C@H](C(=O)N[C@@H](CCC(=O)O)C(=O)N[C@@H](Cc1c[nH]c2ccccc12)C(=O)N[C@@H](CC(C)C)C(=O)NC(C)(C)C(=O)N[C@@H](C)C(=O)NCC(=O)NCC(=O)N1CCC[C@H]1C(=O)N[C@@H](CO)C(=O)N[C@@H](CO)C(=O)NCC(=O)N[C@@H](C)C(=O)N1CCC[C@H]1C(=O)N1CCC[C@H]1C(=O)N1CCC[C@H]1C(=O)N[C@@H](CO)C(N)=O)[C@@H](C)CC)C(=O)O` [SEQ ID NO: 9, H-Aib-Q-G-T-F-T-S-D-L-S-K-Q-K(γE-x70)-D-E-Q-R-A-K-L-F-I-E-W-L-Aib-A-G-G-P-S-S-G-A-P-P-P-S-NH2], for which the EC50 (usually the concentration giving half of the maximal effect) in data set [1] stood at 6.4 pM; in data set [2] (Table 6) it was 15.4 pM; in data set [3] (Table 6, read-out: EC50 hGIP-R), 1160 pM.
Taken in the same sequence, the figures for `CCCCCCCCCCCCCCCC(=O)N[C@@H](CCC(=O)NCCCC[C@H](NC(=O)[C@H](CCC(N)=O)NC(=O)[C@H](CCCCN)NC(=O)[C@H](CO)NC(=O)[C@H](CC(C)C)NC(=O)[C@H](CC(=O)O)NC(=O)[C@H](CO)NC(=O)[C@@H](NC(=O)[C@H](Cc1ccccc1)NC(=O)[C@@H](NC(=O)CNC(=O)[C@H](CCC(N)=O)NC(=O)C(C)(C)NC(=O)[C@@H](N)Cc1c[nH]cn1)[C@@H](C)O)[C@@H](C)O)C(=O)N[C@@H](CC(=O)O)C(=O)N[C@@H](CCC(=O)O)C(=O)N[C@@H](CCC(N)=O)C(=O)N[C@@H](CCCNC(=N)N)C(=O)N[C@@H](C)C(=O)N[C@@H](CCCCN)C(=O)N[C@@H](CC(C)C)C(=O)N[C@@H](Cc1ccccc1)C(=O)N[C@H](C(=O)N[C@@H](CCC(=O)O)C(=O)N[C@@H](Cc1c[nH]c2ccccc12)C(=O)N[C@@H](CC(C)C)C(=O)NC(C)(C)C(=O)N[C@@H](C)C(=O)NCC(=O)NCC(=O)N1CCC[C@H]1C(=O)N[C@@H](CO)C(=O)N[C@@H](CO)C(=O)NCC(=O)N[C@@H](C)C(=O)N1CCC[C@H]1C(=O)N1CCC[C@H]1C(=O)N1CCC[C@H]1C(=O)N[C@@H](CO)C(N)=O)[C@@H](C)CC)C(=O)O` [SEQ ID NO: 10, H-Aib-Q-G-T-F-T-S-D-L-S-K-Q-K(γE-x53)-D-E-Q-R-A-K-L-F-I-E-W-L-Aib-A-G-G-P-S-S-G-A-P-P-P-S-NH2] were 3.5 pM, 52.4 pM and 890 pM.
Take `CCCCCCCCCCCCCCCC(=O)N[C@@H](CCC(=O)N[C@@H](CCC(=O)NCCCC[C@H](NC(=O)[C@H](CCC(N)=O)NC(=O)[C@H](CCCCN)NC(=O)[C@H](CO)NC(=O)[C@H](CC(C)C)NC(=O)[C@H](CC(=O)O)NC(=O)[C@H](CO)NC(=O)[C@@H](NC(=O)[C@H](Cc1ccccc1)NC(=O)[C@@H](NC(=O)CNC(=O)[C@H](CCC(N)=O)NC(=O)C(C)(C)NC(=O)[C@@H](N)Cc1c[nH]cn1)[C@@H](C)O)[C@@H](C)O)C(=O)N[C@@H](CC(=O)O)C(=O)N[C@@H](CCC(=O)O)C(=O)N[C@@H](CCC(N)=O)C(=O)N[C@@H](CCCNC(=N)N)C(=O)N[C@@H](C)C(=O)N[C@@H](CCCCN)C(=O)N[C@@H](CC(C)C)C(=O)N[C@@H](Cc1ccccc1)C(=O)N[C@H](C(=O)N[C@@H](CCC(=O)O)C(=O)N[C@@H](Cc1c[nH]c2ccccc12)C(=O)N[C@@H](CC(C)C)C(=O)NC(C)(C)C(=O)N[C@@H](CCCCN)C(=O)NCC(=O)NCC(=O)N1CCC[C@H]1C(=O)N[C@@H](CO)C(=O)N[C@@H](CO)C(=O)NCC(=O)N[C@@H](C)C(=O)N1CCC[C@H]1C(=O)N1CCC[C@H]1C(=O)N1CCC[C@H]1C(=O)N[C@@H](CO)C(N)=O)[C@@H](C)CC)C(=O)O)C(=O)O` [SEQ ID NO: 15, H-Aib-Q-G-T-F-T-S-D-L-S-K-Q-K(γE-γE-x53)-D-E-Q-R-A-K-L-F-I-E-W-L-Aib-K-G-G-P-S-S-G-A-P-P-P-S-NH2]: the EC50 in data set [2] (Table 7, comparison of residue in position 14) was determined as 394 pM; in data set [3] (Table 7, comparison of residue in position 14, read-out: EC50 hGIP-1), 11900 pM. The solubility at 2 h in data set [4] (setting [7]) and in data set [4] (setting [8]) was greater than 8 mg/mL throughout. Moreover, the “Blood glucose compared to DIO control mice” value in data set [5] is on record as “significant decrease in blood glucose”. Moreover, the “Day on which significant body weight decrease begins” value in data set [6] (4 weeks, continuing through the end of the study) came out at 4 days. For the same compound, the “Daily body weight compared to vehicle DIO control mice” value in data set [6] (4 weeks, p>0.001 by the end of the study (so in the source)) is “statistically significant decrease”. The “Body fat change” value in data set [6] (DIO mice, 4-week treatment, NMR, mean ± SEM) was -4.01 ± 0.68 g. Further, in data set [6] (DIO mice, 4-week treatment, mean ± SEM), the “Overall weight change” value is -4.59 ± 1.1 g.
Regarding `CCCCCCCCCCCCCCCC(=O)N[C@@H](CCC(=O)N[C@@H](CCC(=O)NCCCC[C@H](NC(=O)[C@H](CCC(N)=O)NC(=O)[C@H](CCCCN)NC(=O)[C@H](CO)NC(=O)[C@H](CC(C)C)NC(=O)[C@H](CC(=O)O)NC(=O)[C@H](CO)NC(=O)[C@@H](NC(=O)[C@H](Cc1ccccc1)NC(=O)[C@@H](NC(=O)CNC(=O)[C@H](CCC(N)=O)NC(=O)C(C)(C)NC(=O)[C@@H](N)Cc1c[nH]cn1)[C@@H](C)O)[C@@H](C)O)C(=O)N[C@@H](CC(=O)O)C(=O)N[C@@H](CCC(=O)O)C(=O)N[C@@H](CCC(N)=O)C(=O)N[C@@H](CCCNC(=N)N)C(=O)N[C@@H](C)C(=O)N[C@@H](CCCCN)C(=O)N[C@@H](CC(C)C)C(=O)N[C@@H](Cc1ccccc1)C(=O)N[C@H](C(=O)N[C@@H](CCC(=O)O)C(=O)N[C@@H](Cc1c[nH]c2ccccc12)C(=O)N[C@@H](CC(C)C)C(=O)NC(C)(C)C(=O)N[C@@H](CCCCN)C(=O)N[C@H](C)C(=O)NCC(=O)N1CCC[C@H]1C(=O)N[C@@H](CO)C(=O)N[C@@H](CO)C(=O)NCC(=O)N[C@@H](C)C(=O)N1CCC[C@H]1C(=O)N1CCC[C@H]1C(=O)N1CCC[C@H]1C(=O)N[C@@H](CO)C(N)=O)[C@@H](C)CC)C(=O)O)C(=O)O` [SEQ ID NO: 14, H-Aib-Q-G-T-F-T-S-D-L-S-K-Q-K(γE-γE-x53)-D-E-Q-R-A-K-L-F-I-E-W-L-Aib-K-dAla-G-P-S-S-G-A-P-P-P-S-NH2], the solubility at 2 h in data set [4] (setting [7]) and in data set [4] (setting [8]) was greater than 8 mg/mL throughout.
